# “And” between values parts separate entries of the source, which are not always exact repeats. Equal values may be shown once.
# Tests used:
# [1] = biological target: T1, γ-secretase (cleavage of APP, Aβ42) (Homo sapiens, UniProt P49768); assay: Aβ (1-42) cellular assay (Aβ ELISA, HEK AP-GL-T1 6 cells); format: cell-based; settings: for IC50: cellular Aβ42 ELISA, 24 h compound treatment; for inhibition at 1 µM: at 1 μM (concentration in brackets), read-out: Aβ42 % Inh
# T1 construct: endogenous in cells; host or cells: HEK AP-GL-T16 luciferase reporter cells (tetracycline-induced APP substrate)
# How it was run: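 HEK AP-GL-T1 6 cells, with APP processing induced by tetracycline at compound addition 24 h post-plating. After 24 h of treatment, Aβ42 in conditioned medium (protease inhibitors added, frozen) was quantified by fluorometric sandwich ELISA (ex 460/em 560 nm) against an Aβ peptide standard curve.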
# [2] = biological target: T2, γ-secretase (cleavage of Notch) (Homo sapiens, UniProt P49768); assay: Notch cellular assay (luciferase reporter U2OS cells); format: cell-based; settings: for IC50: U2OS luciferase reporter cells; for Notch Luc/Aβ42: ratio Notch luciferase IC50 to Aβ42 IC50
# T2 construct: endogenous in cells; host or cells: U2OS luciferase reporter cells with Tet-on Notch
# Description: This assay was used to determine if the compounds of interest inhibit the cleavage of Notch by γ-secretase in cells. A U2OS cell line in which the luciferase expression is adjusted by active Notch was used in this assay Notch expression is adjusted using Tet-on promoter. Luciferase reporter U2OS cells are plated at 1000 cells/well in 96 well plates in DMEM containing 100 μg/mL hygromycin, 15 μg/mL blasticidin and 1 μg/mL Tetracycline. Compounds were added 24 h after plating and the cells are lysed 6 days after adding compounds. Luciferase expression was performed using Steady-Glo Luciferase Assay System (Promega).
# [3] = biological target: T3, γ-secretase (Notch cleavage activity) (Homo sapiens, UniProt P49768); assay: Cleaved Notch1 Sandwich ELISA (SUP-T1 cell line); format: cell-based; settings: for IC50: SUP-T1 cells, 16 h; for Notch Elisa/Aβ42: ratio Notch Elisa IC50 to Aβ42 IC50
# T3 construct: endogenous in cells; host or cells: SUP-T1 cells
# How it was run: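 SUP-T1 cells endogenously express a truncated Notch fragment that serves as γ-secretase substrate. Cells at 1.0×10^6 cells/mL in RPMI-1640 with 10% FBS were treated 16 h with serially diluted compounds in DMSO. Cleaved Notch intracellular domain was quantified by sandwich ELISA on equal protein amounts.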
Structure (SMILES),IC50 [1],IC50 [2],Notch Luc/Aβ42 [2],IC50 [3] [nM],Notch Elisa/Aβ42 [3],melting point [°C],inhibition at 1 µM [1] [%]
"O=C(O)c1ccc(CN(C2CCCCC2F)S(=O)(=O)c2ccc(Cl)cc2)c(F)c1F (stereo not drawn) [Example 72, 4-((4-Chloro-N-(2-fluorocyclohexyl)phenylsulfonamido)methyl)-2,3-difluorobenzoic acid]",48.5 nM,–,–,3540,73,108 to 109,–
"CC[C@@H](C1CCCC1)N(Cc1ccc(C(=O)O)cc1)S(=O)(=O)c1ccc(Cl)cc1 [Example 20, (S)-4-((4-Chloro-N-(1-cyclopentylpropyl)phenylsulfonamido)methyl)benzoic acid]",50 nM,40000 nM and 100000 nM,1400,–,–,67 to 69,–
"CC[C@@H](C1CCCCC1)N(Cc1ccc(C(=O)O)cc1)S(=O)(=O)c1ccc(Cl)cc1 [Example 15, (S)-4-((4-Chloro-N-(1-cyclohexylpropyl)phenylsulfonamido)methyl)benzoic acid]",28 nM,20000 nM,715,–,–,147 to 149,–
"C[C@H](CO)NC(=O)c1ccc(CN(C2CCCCC2F)S(=O)(=O)c2ccc(Cl)cc2)c(F)c1F (stereo partly drawn) [Example 77, 4-((4-Chloro-N-(2-fluorocyclohexyl)phenylsulfonamido)methyl)-2,3-difluoro-N—((R)-1-hydroxypropan-2-yl)benzamide]",4.24 nM and 3.36 nM,–,–,1020,268,126 to 128,–
"CC1CCCCC1N(Cc1ccc(C(=O)O)cc1)S(=O)(=O)c1ccc(C(F)(F)F)nc1 (stereo not drawn) [Example 32, 4-((N-(2-Methylcyclohexyl)-6-(trifluoromethyl)pyridine-3-sulfonamido)methyl)benzoic acid]",28.4 nM,4800 nM,169,–,–,117 to 119,–
"O=C(O)c1ccc(CN(C2CCCCC2O)S(=O)(=O)c2ccc(Cl)cc2)c(F)c1F (stereo not drawn) [Example 67, 4-((4-Chloro-N-(2-hydroxycyclohexyl)phenylsulfonamido)methyl)-2,3-difluorobenzoic acid]",–,–,–,–,–,134 to 136,11
"CC1CCCCC1N(Cc1ccc(C(=O)NC(C)(C)C(=O)O)cc1)S(=O)(=O)c1ccc(C(F)(F)F)nc1 (stereo not drawn) [Example 33, 2-Methyl-2-(4-((N-(2-methylcyclohexyl)-6-(trifluoromethyl)pyridine-3-sulfonamido)methyl)benzamido)propanoicacid]",–,–,–,–,–,131 to 132,56
"O=C(O)c1ccc(CN(C2CCCCC2)S(=O)(=O)c2ccc(Cl)cc2)cc1 [Example 45, 4-((4-chloro-N-cyclohexylphenylsulfonamido)methyl)benzoic acid]",216 nM and 47.4 nM and 180 nM,–,–,35900,243,135 to 137,–
"COc1ccc(CN(CC2CCOCC2)S(=O)(=O)c2ccc(Cl)cc2)cc1C(=O)O [Example 17, 5-((4-Chloro-N-((tetrahydro-2H-pyran-4-yl)methyl)phenylsulfonamido)methyl)-2-methoxybenzoic acid]",–,–,–,–,–,158 to 159,14

# The next lines start with the values.
IC50 [1],IC50 [2],Notch Luc/Aβ42 [2],IC50 [3] [nM],Notch Elisa/Aβ42 [3],melting point [°C],inhibition at 1 µM [1] [%],Structure (SMILES)
0.83 nM,990 nM,1192,130,157,105 to 107,–,"CC1CCCCC1N(Cc1ccc(C(=O)NCCO)cc1)S(=O)(=O)c1ccc(Cl)cc1 (stereo not drawn) [Example 6, 4-((4-Chloro-N-(2-methylcyclohexyl)phenylsulfonamido)methyl)-N-(2-hydroxyethyl)benzamide]"
135 nM,8090 nM,60,–,–,121 to 122,–,"CC1CCCCC1N(Cc1ccc(C(=O)NC(C)(C)C(=O)O)cc1)S(=O)(=O)c1ccc(Cl)cc1 (stereo not drawn) [Example 34, 2-(4-((4-Chloro-N-(2-methylcyclohexyl)phenylsulfonamido)methyl)benzamido)-2-methylpropanoic acid]"
1.1 nM and 1.8 nM,2300 nM,1586,160,110,95 to 97,–,"CC1CCCCC1N(Cc1ccc(C(=O)N[C@@H](C)CO)cc1)S(=O)(=O)c1ccc(Cl)cc1 (stereo partly drawn) [Example 5, 4-((4-Chloro-N-(2-methylcyclohexyl)phenylsulfonamido)methyl)-N—((S)-1-hydroxypropan-2-yl)benzamide]"
7 nM and 12.7 nM and 3.8 nM,5000 nM and 4400 nM and 4300 nM,585,350,45,180 to 182,–,"CC1CCCCC1N(Cc1ccc(C(=O)O)cc1)S(=O)(=O)c1ccc(Cl)cc1 (stereo not drawn) [Example 3, 4-((4-Chloro-N-(2-methylcyclohexyl)phenylsulfonamido)methyl)benzoic acid]"
20.9 nM,2540 nM,–,–,–,116 to 117,–,"CC1CCCCC1N(Cc1ccc(C(=O)NC(C)(C)CO)cc1)S(=O)(=O)c1ccc(Cl)cc1 (stereo not drawn) [Example 37, 4-((4-Chloro-N-(2-methylcyclohexyl)phenylsulfonamido)methyl)-N-(1-hydroxy-2-methylpropan-2-yl)benzamide]"
–,–,–,–,–,218 to 219,51,"O=C(O)c1ccc(CN(C2CCCCC2O)S(=O)(=O)c2ccc(Cl)cc2)cc1 (stereo not drawn) [Example 24, 4-((4-Chloro-N-(2-hydroxycyclohexyl)phenylsulfonamido)methyl)benzoic acid]"
